On the set-up of series [1]: method as in PMID 36183548. The settings on record: MLMs, as previously reported ref 30; cited from earlier work.
A further series deals with T1, human 5-HT6 (Homo sapiens, UniProt P50406).
T1 construct: expressed in transfected cells
In words: [3H]-LSD radioligand binding assay, 5-HT6R. The settings on record: HEK293 expressing human 5-HT6R, read-out: 5-HT6 Ki. As for the experimental part: Next, the ligands’ affinity for the 5-HT6 receptors was evaluated in the [^3H]-LSD radioligand binding assay. Experiments were performed in a stable HEK293 cell line expressing the human 5-HT6R.
The pellets were stored at −80 °C.

The target of series [2] is T2, human serum albumin (HSA) (Homo sapiens, UniProt P02768). More on the design: purchased Daicel Chiral Technologies; method as in PMID 28215942. The settings on record: cited from earlier work.
T2 sequence (P02768 25-609): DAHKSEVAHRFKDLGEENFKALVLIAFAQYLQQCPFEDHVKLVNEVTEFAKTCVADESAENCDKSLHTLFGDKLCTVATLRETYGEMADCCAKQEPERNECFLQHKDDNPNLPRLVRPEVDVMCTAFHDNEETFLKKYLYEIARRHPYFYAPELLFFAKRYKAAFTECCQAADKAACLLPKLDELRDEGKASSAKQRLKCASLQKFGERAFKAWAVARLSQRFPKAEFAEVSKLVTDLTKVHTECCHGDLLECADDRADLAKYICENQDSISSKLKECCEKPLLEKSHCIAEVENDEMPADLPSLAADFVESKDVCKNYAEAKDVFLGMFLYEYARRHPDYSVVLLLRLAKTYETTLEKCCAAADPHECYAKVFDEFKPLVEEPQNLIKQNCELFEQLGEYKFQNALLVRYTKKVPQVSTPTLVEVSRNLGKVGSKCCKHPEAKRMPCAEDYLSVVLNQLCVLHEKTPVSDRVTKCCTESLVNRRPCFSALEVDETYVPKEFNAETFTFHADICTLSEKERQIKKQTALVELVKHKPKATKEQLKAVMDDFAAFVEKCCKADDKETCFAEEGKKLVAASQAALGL
The test system of a further series is HSA and AGP (24:1). Description: in vitro. The settings on record: human, plasma.
For series [3], the system named is AsPC-1 pancreas adenocarcinoma cell line. In words: Antiproliferative activity (MTS), AsPC-1. The settings on record: read-out: IC50 Values AsPC-1; 72 h, MTS.
Series [4] deals with T2, human serum albumin (HSA). In words: Binding to HSA, Chiralpak HSA column. In short, it runs like this: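 HSA binding (%HSA) was estimated by HPLC on a Chiralpak HSA column at 30 °C and 0.9 mL/min. The gradient ran 0–20% isopropanol in 50 mM ammonium acetate over 15 min, then held 12 min. UV detection covered 190–300 nm, and values were calibrated against reference compounds, in triplicate.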

Series [5] deals with MCF7 breast carcinoma cell line. Description: Antiproliferative activity (MTS), MCF7. As to conditions: read-out: IC50 Values MCF7; 72 h, MTS.
The nature of series [6]: Affinity to phospholipids, IAM column (CHI IAM). In kind it is physicochemical. As to conditions: IAM.PC.DD2 column, pH 7.4.
Text: We began with an assay for lipophilicity, affinity for phospholipids (for 40 compounds), and drug binding to human serum albumin (HSA) (for 20 compounds), using chromatographic protocols developed by Valko [46] and implemented in our laboratory [47]. […] These methods allowed the determination of chromatographic hydrophobicity indices (CHIs), binding to HSA (%HSA), and phospholipids (CHIIAM) using a single-gradient elution experiment and comparison to reference substances.
The mobile phase flow rate was 1.5 mL/min, and the column was maintained at 30 °C. • Chiralpak® HSA (50 mm × 4 mm; 5 µm with safety guard column; Daicel Chiral Technologies, West Chester, PA, USA), mobile phase A: 50 mM ammonium acetate, mobile phase B: HPLC-grade isopropanol (VWR International, Leuven, Belgium). For the first 15 min, the linear gradient from 0 to 20% isopropanol was applied and then held at 20% isopropanol for 12 min. In the last 5 min of the sequence, the mobile phase mixture received a pure ammonium acetate solution. The column temperature was held at 30 °C, whereas the flow rate was 0.9 mL/min.
The reference substances for the calibration of HSA, C18, and IAM columns were purchased, respectively: acetanilide, butyrophenone, diclofenac, and octanonophenone (Alfa Aesar, Haverhill, MA, USA); acetophenone, benzimidazole, colchicine, indole, indometacin, paracetamol, and theophylline (Sigma-Aldrich, Steinheim, Germany); nicardipine and nizatidine (Cayman Chemical, Ann Arbor, MI, USA); carbamazepine, heptanophenone, hexanophenone, propiophenone, and valerophenone (Acros Organic, Pittsburg, PA, USA). Before chromatographic experiments, solutes were dissolved in dimethyl sulfoxide (Avantor Performance Materials Poland S.A., Gliwice, Poland) to obtain a 200 µg/mL concentration. The detection was performed in the UV region at the wavelength from 190 nm to 300 nm. The injected volume was 5 μL, and each compound was analyzed in triplicate.
The nature of series [7]: Chromatographic hydrophobicity index on C18 column (lipophilicity). Type of series: physicochemical.
The next series has as its system U-251 glioblastoma cells. Description: Antiproliferative activity (MTS), U-251. The settings on record: read-out: IC50 Values U-251; 72 h, MTS.
The subject of the next series is U87MG glioblastoma cells. In words: Antiproliferative activity (MTS), U87MG. As to conditions: read-out: IC50 Values U87MG; 72 h, MTS.
Another series concerns the target 5-HT5A receptor (Homo sapiens, UniProt P47898). Description: [3H]-LSD radioligand binding assay, 5-HT5A. The settings on record: read-out: 5-HT5A Ki; [3H]-LSD, HEK293.
The subject of series [8] is LN-229 glioblastoma cell line. In words: Antiproliferative activity (MTS), LN-229. The settings on record: read-out: IC50 Values LN-229; 72 h, MTS.
The test system of series [9] is 1321N1 astrocytoma cell line. Description: Antiproliferative activity (MTS), 1321N1. As to conditions: read-out: IC50 Values 1321N1; 72 h, MTS.

As usually defined, the Ki is the dissociation constant of the complex between target and ligand, obtained from inhibition or displacement. For orientation: fraction unbound means the share of the substance not bound to proteins or other matrix. A high value points to much free substance. Broadly, the IC50 is the concentration needed to halve the response being measured.

T1 sequence (P50406 whole entry): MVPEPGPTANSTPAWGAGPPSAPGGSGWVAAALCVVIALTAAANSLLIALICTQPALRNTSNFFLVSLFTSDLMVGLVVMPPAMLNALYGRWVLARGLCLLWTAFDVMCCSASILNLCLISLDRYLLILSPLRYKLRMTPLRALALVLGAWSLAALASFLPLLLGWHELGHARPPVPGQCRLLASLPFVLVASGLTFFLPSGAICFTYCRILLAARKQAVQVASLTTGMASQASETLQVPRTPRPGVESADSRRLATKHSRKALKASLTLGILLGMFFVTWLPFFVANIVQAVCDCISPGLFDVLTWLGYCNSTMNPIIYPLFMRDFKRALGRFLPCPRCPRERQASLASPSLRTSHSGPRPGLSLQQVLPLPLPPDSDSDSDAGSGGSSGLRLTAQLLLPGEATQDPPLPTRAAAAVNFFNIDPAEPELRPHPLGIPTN
Chain of 5-HT5A receptor (P47898 whole entry): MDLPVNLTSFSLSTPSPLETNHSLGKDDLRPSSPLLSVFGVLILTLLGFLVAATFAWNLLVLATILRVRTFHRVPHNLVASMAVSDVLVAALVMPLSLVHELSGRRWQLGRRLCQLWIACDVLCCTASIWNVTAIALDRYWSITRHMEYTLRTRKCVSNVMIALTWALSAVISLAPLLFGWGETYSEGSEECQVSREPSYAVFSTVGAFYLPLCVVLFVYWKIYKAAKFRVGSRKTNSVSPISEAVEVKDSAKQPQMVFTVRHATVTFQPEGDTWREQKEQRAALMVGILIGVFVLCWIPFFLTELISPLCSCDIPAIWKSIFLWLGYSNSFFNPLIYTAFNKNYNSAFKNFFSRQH

Consider `O=S(=O)(NC1=NCc2ccccc2N1)c1cccc2ccccc12` [PR 40, N -(3,4-dihydroquinazolin-2-yl)naphthalene-1-sulfonamide], for which the metabolized in series [1] is listed as 97%. Also, the Ki at human 5-HT6 worked out at 0.651 ± 0.135 µM.
As for `O=c1[nH]c2ccccc2n1C1CCN(CCCC(c2ccc(F)cc2)c2ccc(F)cc2)CC1` [pimozide], the “affinity to HSA” value in series [2] is on record as 98.6%.
As for `CC(=O)CC(c1ccccc1)c1c(O)c2ccccc2oc1=O` (stereo not drawn) [warfarin], in the series on HSA and AGP (24:1), the fraction unbound at 12 min, 20 µM is 0.015.
As for “N -[6-(4-methylpiperazin-1-yl)-3,4-dihydroquinazolin-2-yl]naphthalene-1-sulfonamide [PR 66]”, the IC50 (in series [3]; in series [5]; in the series with U-251 glioblastoma cells; in the series with U87MG glioblastoma cells; in series [8]; in series [9]) was greater than 25 µM each time. Moreover, the “%HSA” value in [4] worked out at 92.7%. Moreover, the logKHSA in series [4] amounted to 1.0. Moreover, the “CHI IAM” value in series [6] turned out to be 36.0. The “CHI C18 pH 2.6” value in series [7] (pH 2.6) was 81.4. Also, the “CHI C18 pH 7.4” value in series [7] (pH 7.4) was 79.6. In addition, the “CHI C18 pH 10.5” value in series [7] (pH 10.5) worked out at 80.7. Further, the values for the inhibition constant (Ki) on human 5-HT6 and on 5-HT5A receptor were 11.6 ± 2.66 µM and 3.44 µM, respectively.

The values are drawn from article PMC11477289, “Low-Basicity 5-HT6 Receptor Ligands from the Group of Cyclic Arylguanidine Derivatives and Their Antiproliferative Activity Evaluation” (International Journal of Molecular Sciences, 2024).
